For the assay, the target named is T1, TAK1A-TAB fusion protein (Homo sapiens, UniProt O43318).
T1 construct: using 20 nM TAK1A-TAB fusion protein
T1 sequence (O43318 with tags, fused parts or gaps isoform O43318-2 limits assumed): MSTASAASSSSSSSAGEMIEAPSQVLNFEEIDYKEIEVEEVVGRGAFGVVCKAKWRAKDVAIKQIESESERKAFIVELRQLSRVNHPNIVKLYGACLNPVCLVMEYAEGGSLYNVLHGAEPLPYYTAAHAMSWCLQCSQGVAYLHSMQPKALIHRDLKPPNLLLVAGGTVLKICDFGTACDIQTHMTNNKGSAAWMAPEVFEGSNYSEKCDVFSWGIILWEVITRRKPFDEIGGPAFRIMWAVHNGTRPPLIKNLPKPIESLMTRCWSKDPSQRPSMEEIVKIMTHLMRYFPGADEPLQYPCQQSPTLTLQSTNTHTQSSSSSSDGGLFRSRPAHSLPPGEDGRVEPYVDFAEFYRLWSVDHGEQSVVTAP
Briefly: TAK-1 inhibition assay, radiometric filter binding assay. The conditions noted are these: 50 μM ATP, 12 μM bovine myelin basic protein, 20 nM TAK1A-TAB fusion protein. It is filed as biochemical. On the procedure: Compounds were screened for their ability to inhibit TAK1A kinase activity using a radiometric filter binding assay. Reactions were carried out in a solution containing Buffer A (100 mM HEPES (pH 7.5), 10 mM MgCl2), 25 mM NaCl, 2 mM DTT, and 1.5% DMSO. Final substrate concentrations in the assay were 50 μM ATP (a mixture of unlabeled ATP (Sigma Chemicals, St Louis, Mo.) and ^33P-labeled ATP (PerkinElmer Life Sciences, Boston, Mass.) for a final specific activity of 50 Ci/mol), and 12 μM bovine myelin basic protein (MBP, Vertex Pharmaceuticals, Cambridge, Mass.). Reactions were carried out at ambient temperature (˜20° C.) using 20 nM TAK1A-TAB fusion protein. Under these conditions the extent of reaction is linear with time for a period of 2 hours.
A test compound of the present invention (1 μL in DMSO) was combined with ATP and Buffer A in a final volume of 47 μL in a 96 well plate. Typically, a 6 point titration was conducted by preparing serial dilutions (from 10 mM compound stocks) with DMSO of the test compounds of the present invention in daughter plates, for final concentrations spanning 0.046 μM to 3.73 μM. The reaction was initiated by the addition of 20 μl of an enzyme stock solution consisting of TAK1A-TAB fusion (described by Sugita, T. et al. in Biochem. Biophys. Res. Comm. 2002, 297, 1277-1281), MBP, Buffer A, NaCl, and DTT. The reaction was allowed to proceed for two hours at ambient temperature, then quenched with an equal volume of 10 mM unlabeled ATP in 10% trichloroacetic acid. A 110 μL aliquot of the quenched reaction was transferred to a Multiscreen PH filter plate (Millipore, Billerica, Mass.) and allowed to incubate at ambient temperature overnight (typically 16-20 hours). Following incubation the filter plates were washed with 3×150 μL aliquots of 5% trichloroacetic acid using a modified Biotek Elx405 plate washer. A 70 μL aliquot of Microscint 20 scintillation fluid (PerkinElmer) was added to each well, and the plate was then sealed and read on a TopCount NXT microplate scintillation counter (PerkinElmer). The Ki values were determined from the rate data as a function of inhibitor concentration.

A word on the Ki: it is the equilibrium dissociation constant of an inhibitor or competing ligand from its target. For `Oc1cnc2[nH]cc(-c3oncc3-c3cccc(Cl)c3Cl)c2c1` [Compound 48, 3-[4-(2,3-Dichloro-phenyl)-isoxazol-5-yl]-1H-pyrrolo[2,3-b]pyridin-5-ol], the Ki was 200 to 1000 nM.
Molecule `COc1cnc2[nH]cc(-c3oncc3-c3cccc(Cl)c3Cl)c2c1` [Compound 49, 3-[4-(2,3-Dichloro-phenyl)-isoxazol-5-yl]-5-methoxy-1H-pyrrolo[2,3-b]pyridine] had a Ki of 200 to 1000 nM.
`CN(C)CC#Cc1cnc2[nH]cc(-c3oncc3-c3cccc(F)c3F)c2c1` [Compound 53, (3-{3-[4-(2,3-Difluoro-phenyl)-isoxazol-5-yl]-1H-pyrrolo[2,3-b]pyridin-5-yl}-prop-2-ynyl)-dimethyl-amine]: the Ki was in the range of 200 to 1000 nM.
In the case of `CN(C)c1cccc(-c2cnc3[nH]cc(-c4oncc4-c4cccc(F)c4F)c3c2)c1` [Compound 61, (3-{3-[4-(2,3-Difluoro-phenyl)-isoxazol-5-yl]-1H-pyrrolo[2,3-b]pyridin-5-yl}-phenyl)-dimethyl-amine] it was 200 to 1000 nM; in that of `Fc1cccc(-c2cnoc2-c2c[nH]c3ncc(C4CCNCC4)cc23)c1F` [Compound 62, 3-[4-(2,3-Difluoro-phenyl)-isoxazol-5-yl]-5-piperidin-4-yl-1H-pyrrolo[2,3-b]pyridine], 1000 to 12500 nM; in that of `Fc1cccc(-c2cnoc2-c2c[nH]c3ncc(-c4ccc(N5CCNCC5)cc4)cc23)c1F` [Compound 68, 3-[4-(2,3-Difluoro-phenyl)-isoxazol-5-yl]-5-(4-piperazin-1-yl-phenyl)-1H-pyrrolo[2,3-b]pyridine], below 200 nM.
With `Fc1ccc(-c2cnc3[nH]cc(-c4oncc4-c4cccc(F)c4F)c3c2)cn1` [Compound 69, 3-[4-(2,3-Difluoro-phenyl)-isoxazol-5-yl]-5-(6-fluoro-pyridin-3-yl)-1H-pyrrolo[2,3-b]pyridine] the figure was 200 to 1000 nM; with `CN1CCN(c2ccc(-c3cnc4[nH]cc(-c5oncc5-c5cccc(F)c5F)c4c3)cc2)CC1` [Compound 70, 3-[4-(2,3-Difluoro-phenyl)-isoxazol-5-yl]-5-[4-(4-methyl-piperazin-1-yl)-phenyl]-1H-pyrrolo[2,3-b]pyridine methanesulfonate], below 200 nM; with `CN1CCN(c2ccc(-c3cnc4[nH]cc(-c5oncc5-c5cccc(F)c5F)c4c3)cn2)CC1` [Compound 71, 3-[4-(2,3-Difluoro-phenyl)-isoxazol-5-yl]-5-[6-(4-methyl-piperazin-1-yl)-pyridin-3-yl]-1H-pyrrolo[2,3-b]pyridine], below 200 nM.
With `CCN1CCC(c2cnc3[nH]cc(-c4oncc4-c4cccc(F)c4F)c3c2)CC1` [Compound 72, 3-[4-(2,3-Difluoro-phenyl)-isoxazol-5-yl]-5-(1-ethyl-piperidin-4-yl)-1H-pyrrolo[2,3-b]pyridine] the figure was 1000 to 12500 nM; with `Fc1cccc(-c2cnoc2-c2c[nH]c3ncc(-c4cnc5[nH]ccc5c4)cc23)c1F` [Compound 77, 3-[4-(2,3-Difluoro-phenyl)-isoxazol-5-yl]-1H,1′H-[5,5′]bi[pyrrolo[2,3-b]pyridinyl]], 200 to 1000 nM.
In the case of `COc1ccnc(-c2cnc3[nH]cc(-c4oncc4-c4cccc(F)c4F)c3c2)c1` [Compound 78, 3-[4-(2,3-Difluoro-phenyl)-isoxazol-5-yl]-5-(4-methoxy-pyridin-2-yl)-1H-pyrrolo[2,3-b]pyridine], the Ki lay in the range of 200 to 1000 nM.
In turn, `CN(C)C(=O)c1ccc(-c2cnc3[nH]cc(-c4oncc4-c4cccc(F)c4F)c3c2)nc1` [Compound 79, 6-{3-[4-(2,3-Difluoro-phenyl)-isoxazol-5-yl]-1H-pyrrolo [2,3-b]pyridin-5-yl}-N,N-dimethyl-nicotinamide] came in with an inhibitory constant (Ki) of 200 to 1000 nM.
In the case of `CN(C)Cc1ccc(-c2cnc3[nH]cc(-c4oncc4-c4cccc(F)c4F)c3c2)nc1` [Compound 84, (6-{3-[4-(2,3-Difluoro-phenyl)-isoxazol-5-yl]-1H-pyrrolo[2,3-b]pyridin-5-yl}-pyridin-3-ylmethyl)-dimethyl-amine] it was 200 to 1000 nM; in that of `CS(=O)(=O)n1ccc2cc(-c3cnc4[nH]cc(-c5oncc5-c5cccc(F)c5F)c4c3)cnc21` [Compound 97, 3′-[4-(2,3-Difluoro-phenyl)-isoxazol-5-yl]-1-methanesulfonyl-1H, 1′H-[5,5′]bi[pyrrolo[2,3-b]pyridinyl]], 200 to 1000 nM.
Molecule `CS(=O)(=O)Nc1ccc(-c2cnc3[nH]cc(-c4oncc4-c4cccc(F)c4F)c3c2)cc1` [Compound 98, N-(4-{3-[4-(2,3-Difluoro-phenyl)-isoxazol-5-yl]-1H-pyrrolo[2,3-b]pyridin-5-yl}-phenyl)-methane sulfonamide] had a Ki of 200 to 1000 nM.
In the case of `Clc1cccc(-c2cnoc2-c2c[nH]c3ncc(-c4cccnc4)cc23)c1Cl` [Compound 99, 3-[4-(2,3-Dichloro-phenyl)-isoxazol-5-yl]-5-pyridin-3-yl-1H-pyrrolo[2,3-b]pyridine] it was 200 to 1000 nM.
With `CN(C)c1ccc(-c2cnc3[nH]cc(-c4nncn4-c4cccc(F)c4F)c3c2)cc1` [Compound 106, (4-{3-[4-(2,3-Difluoro-phenyl)-4H-[1,2,4]triazol-3-yl]-1H-pyrrolo[2,3-b]pyridin-5-yl}-phenyl)-dimethyl-amine] the figure was 200 to 1000 nM; with `Fc1cccc(-n2cnnc2-c2c[nH]c3ncc(-c4ccc(CN5CCOCC5)cc4)cc23)c1F` [Compound 109, 3-[4-(2,3-Difluoro-phenyl)-4H-[1,2,4]triazol-3-yl]-5-(4-morpholin-4-ylmethyl-phenyl)-1H-pyrrolo[2,3-b]pyridine], 200 to 1000 nM.
As to `CN1CCN(c2ccc(-c3cnc4[nH]cc(-c5nncn5-c5cccc(F)c5F)c4c3)cc2)CC1` [Compound 110, 3-[4-(2,3-Difluoro-phenyl)-4H-[1,2,4]triazol-3-yl]-5-[4-(4-methyl-piperazin-1-yl)-phenyl]-1H-pyrrolo[2,3-b]pyridine], the Ki was below 200 nM.
On to `CN1CCN(c2ccc(-c3cnc4[nH]cc(-c5nncn5-c5cccc(F)c5F)c4c3)cn2)CC1` [Compound 112], for which the Ki was in the range of 1000 to 12500 nM.
For the molecule `Fc1cccc(-n2cnnc2-c2c[nH]c3ncc(-c4cccnc4)cc23)c1F` [Compound 113, 3-[4-(2,3-Difluoro-phenyl)-4H-[1,2,4]triazol-3-yl]-5-pyridin-3-yl-1H-pyrrolo[2,3-b]pyridine], the Ki fell in the range of 1000 to 12500 nM.
With `Fc1cccc(-n2cnnc2-c2c[nH]c3ncc(-c4ccncc4)cc23)c1F` [Compound 114, 3-[4-(2,3-Difluoro-phenyl)-4H-[1,2,4]triazol-3-yl]-5-pyridin-4-yl-1H-pyrrolo[2,3-b]pyridine] the figure was 1000 to 12500 nM.
In the case of `Fc1cccc(-n2cnnc2-c2c[nH]c3ncc(-c4ccc(N5CCC[C@H]5CN5CCCC5)nc4)cc23)c1F` [Compound 115, 3-[4-(2,3-Difluoro-phenyl)-4H-[1,2,4]triazol-3-yl]-5-[6-(2-pyrrolidin-1-ylmethyl-pyrrolidin-1-yl)-pyridin-3-yl]-1H-pyrrolo[2,3-b]pyridine], the Ki lay within 200 to 1000 nM.
For `OC1CCN(c2ccc(-c3cnc4[nH]cc(-c5nncn5-c5cccc(F)c5F)c4c3)cn2)CC1` [Compound 116, 5′-{3-[4-(2,3-Difluoro-phenyl)-4H-[1,2,4]triazol-3-yl]-1H-pyrrolo[2,3-b]pyridin-5-yl}-3,4,5,6-tetrahydro-2H-[1,2′]bi-pyridinyl-4-ol], the Ki fell in the range of 200 to 1000 nM.
The molecule `CN1CCCN(c2ccc(-c3cnc4[nH]cc(-c5nncn5-c5cccc(F)c5F)c4c3)cn2)CC1` [Compound 117, 3-[4-(2,3-Difluoro-phenyl)-4H-[1,2,4]triazol-3-yl]-5-[6-(4-methyl-[1,4]diazepan-1-yl)-pyridin-3-yl]-1H-pyrrolo [2,3-b]-pyridine] displayed an inhibition constant Ki of 200 to 1000 nM.
With `Fc1cccc(-n2cnnc2-c2c[nH]c3ncc(-c4ccc(N5CCCC5)nc4)cc23)c1F` [Compound 118, 3-[4-(2,3-Difluoro-phenyl)-4H-[1,2,4]triazol-3-yl]-5-(6-pyrrolidin-1-yl-pyridin-3-yl)-1H-pyrrolo[2,3-b]pyridine] the figure was 200 to 1000 nM.

The values above are taken from patent US7446199B2, “Compositions useful as inhibitors of protein kinases” (Vertex Pharmaceuticals Incorporated, priority 2003, dated 2008).
